According to publication PMC8344233, “Anticancer activity and toxicity of new quaternary ammonium geldanamycin derivative salts and their mixtures with potentiators” (Journal of Enzyme Inhibition and Medicinal Chemistry, 2021):

Legend:
[1] = test system: MDA-MB-231; experiment: MTT cytotoxicity assay, MDA-MB-231 (1st panel); assay type: cell-based, human; conditions: for IC50: Homo sapiens, MDA-MB-231, ± SD, MTT, 72 h; for selectivity index SI (MDA-MB-231): IC50 normal cell line CCD39Lu/IC50 MDA-MB-231
Procedure: (§1) Cell survival was measured as the percentage absorbance compared to the control (nontreated cells). […]
(§2) SI indexes were calculated from equation SI = IC50 normal cell line HDF/IC50 respective cancerous cell line (Table 2). A beneficial SI > 1.0 indicates a compound with efficacy against tumor cell greater than the toxicity against normal cells.
(§3) All experiments were carried out with human breast adenocarcinoma (MDA-MB-231 and MCF-7), hepatocellular carcinoma (HepG2), human cervical adenocarcinoma (HeLa) cancer cell lines, and human normal lung fibroblast (CCD39Lu) cell line. The cell line was purchased from the European Collection of Cells Cultures (ECACC, Salisbury, UK), and cultured in DMEM with phenol red supplemented with 10% (v/v) FBS, 1% (v/v) penicillin/streptomycin, and 1% (v/v) L-glutamine at 37 °C, in a humidified atmosphere containing 5% CO2.
(§4) The tested compounds were dissolved in DMSO to the final concentration 10 mM and stored […]
(§5) The cytotoxic effect of the tested compounds was determined by MTT assay. MDA-MB-231, MCF-7, HepG2, HeLa, and CCD39Lu cells were seeded in 96 wells plates at density 2x10^4 cells/well and incubated overnight under cell culture condition. Next, cells were treated with tested compounds at concentrations of 10 µM; 5 µM; 2.5 µM; 1.2 µM; 0.6 µM; 0.3 µM; 0.15 […]
(§6) µM. Moreover, GDM (for MCF-7) and 8 (for MCF-7 and MDA-MB-231) due to high cytotoxicity, were additionally tested at a lower concentration range of 2.5 µM; 1.2 µM; 0.6 µM; 0.3 µM; 0.15µM; 0.07 µM; 0.03 µM. DMSO was used as a control, and the concentration […]
(§7) Tested compounds were added to cells in the medium without phenol red. Cells were incubated 72 h at 37 °C in a humidified atmosphere containing 5% CO2.
(§8) Then, the medium was aspirated and MTT solution at a concentration of 0.59 mg/mL in cell culture medium was added to each well. Plates were incubated for 1.5 hours at 37 °C, and then plates were centrifuged for 3 minutes. The formazan crystals were dissolved in 200 µl DMSO and plates were agitated on a plate shaker at 300 –500 rpm for 10 minutes. Absorbance at 570 nm was measured using a plate reader (Biotek Instruments, Elx -800). Data were normalized to the mean absorption of control cells. All experiments were performed at least three times. […]

[2] = test system: MCF-7; experiment: MTT cytotoxicity assay, MCF-7 (1st panel); assay type: cell-based, human; conditions: for IC50: Homo sapiens, MCF7, 72 h, ± SD, MTT, 72 h; for selectivity index SI (MCF-7): IC50 normal cell line CCD39Lu/IC50 MCF-7
Procedure: as §1, §2, §3, §4, §5, §6, §7, §8

[3] = test system: CCD39Lu; experiment: MTT cytotoxicity assay, normal lung fibroblasts CCD39Lu; assay type: cell-based; conditions: Fibroblast, ± SD, healthy human lung fibroblasts, 72 h, read-out: IC50 CCD39Lu (toxicity in normal cells)
Procedure: as §1, §2, §3, §4, §5, §6, §7, §8

[4] = test system: HeLa; experiment: MTT cytotoxicity assay, HeLa (1st panel); assay type: cell-based, human; conditions: for IC50: Homo sapiens, HeLa, ± SD, MTT, 72 h; for selectivity index SI (HeLa): IC50 normal cell line CCD39Lu/IC50 HeLa
Procedure: as §1, §2, §3, §4, §5, §6, §7, §8

[5] = test system: HepG2; experiment: MTT cytotoxicity assay, HepG2 (1st panel); assay type: cell-based, human; conditions: for IC50: Homo sapiens, HepG2, ± SD, MTT, 72 h; for selectivity index SI (HepG2): IC50 normal cell line CCD39Lu/IC50 HepG2
Procedure: as §1, §2, §3, §4, §5, §6, §7, §8

[6] = test system: PC-3; experiment: SRB cytotoxicity assay, PC-3 (2nd panel); assay type: cell-based, human; conditions: for IC50: Homo sapiens, PC-3, ± SD, SRB, 72 h, mixtures equimolar 1:1; for selectivity index SIHDF (PC-3): IC50 normal cell line HDF/IC50 PC-3
Procedure: (§9) Medium. Human Dermal Fibroblasts cell line (HDF) was cultured in Fibroblast Basal Medium.
(§10) Each medium was supplemented with 10% fetal bovine serum, 1% L-glutamine, and 1% penicillin/streptomycin solution. The cell lines were kept in the incubator at 37◦C. The optimal plating density of cell lines was determined to be 5 × 104. All the cell lines and mediums were obtained from American Type Culture Collection (ATCC) supplied by LGC-Standards. The protein-staining SRB (Sigma-Aldrich) microculture colorimetric assay, developed by the National Cancer Institute (USA) for in vitro antitumor screening was used in this study, to estimate the cell number by providing a sensitive index of total cellular protein content, being linear to cell density. The monolayer cell culture was trypsinized and the cell count was adjusted to 5 × 10^4 cells. To each well of the 96 well microtiter plate, 0.1 mL of the diluted cell suspension (approximately […]) was added. After 24 hours, when a partial monolayer was formed, the supernatant was washed out and 100 μL of six different compound concentrations (0.1, 0.2, 1, 2, 10, and 20 μM) were added to the cells in microtitre plates. The tested compounds were dissolved in DMSO (containing 10 % of water) (100 μL) and the […]
(§11) lines. The cells were exposed to compounds for 72 hours at 37 °C in a humidified atmosphere (90% RH) containing 5% CO2. After that, 25 μL of 50 % trichloroacetic acid was added to the wells and the plates were incubated for 1 hour at 4◦C. The plates were then washed out with the distilled water to remove traces of medium and next dried by the air. The air-dried plates were stained with 100 μL of 0.4% sulforhodamine B (prepared in 1 % acetic acid) and kept for 30 minutes at room temperature. The unbound dye was removed by rapidly washing with 1% […]
(§12) acetic acid and then air dried overnight. The protein-bound dye was dissolved in 100 μL of 10 mM unbuffered Tris base (pH 10.5) for optical density determination at 490 nm. All cytotoxicity experiments were performed three times. Cell survival was measured as the percentage absorbance compared to the control (nontreated cells). Cytarabine (ara-C) and GDM were used as the internal standards. Additionally biological assays were performed in Human Dermal Fibroblasts cell line (HDF) in aim to evaluate cytotoxicity of GDM and its 1-13 analogs in healthy cells. SI indexes were calculated from equation SI = IC50 normal cell line HDF/IC50 respective cancerous cell line (Table 2). A beneficial SI > 1.0 indicates a compound with efficacy against tumor cell greater than the toxicity against normal cells. […]

[7] = test system: HDF; experiment: SRB cytotoxicity assay, human dermal fibroblasts HDF; assay type: cell-based; conditions: 72 h, ± SD, mixtures equimolar 1:1, read-out: IC50 HDF (toxicity in normal cells)
Procedure: as §9, §10, §11, §12

[8] = test system: SKBR-3; experiment: SRB cytotoxicity assay, SKBR-3 (2nd panel); assay type: cell-based, human; conditions: for IC50: Homo sapiens, SK-BR-3, ± SD, SRB, 72 h, mixtures equimolar 1:1; for selectivity index SIHDF (SKBR-3): IC50 normal cell line HDF/IC50 SKBR-3
Procedure: (§13) Human cancer cells SKBR-3 (human breast cancer cell line) and SKOV-3 (ovarian cancer cell line) were cultured in McCoy’s Modified Medium. […]
as §9, §10, §11, §12

[9] = test system: SKOV-3; experiment: SRB cytotoxicity assay, SKOV-3 (2nd panel); assay type: cell-based, human; conditions: for IC50: Homo sapiens, SK-OV-3, ± SD, SRB, 72 h, mixtures equimolar 1:1; for selectivity index SIHDF (SKOV-3): IC50 normal cell line HDF/IC50 SKOV-3
Procedure: as §13, §9, §10, §11, §12

[10] = physchem; conditions: water, Solubility SH2O
[11] = test system: U-87; experiment: SRB cytotoxicity assay, U-87 (2nd panel); assay type: cell-based, human
Procedure: U-87MG cells (glioblastoma cell line) were cultured in Eagle’s Minimal Essential Medium. Human Dermal Fibroblasts cell line (HDF) was cultured in Fibroblast Basal Medium.
as §10, §11, §12

[12] = test system: A-549; experiment: SRB cytotoxicity assay, A-549 (2nd panel); assay type: cell-based, human
Procedure: as §9, §10, §11, §12

[13] = test system: cancer cell lines; experiment: Cytotoxicity, values summarised over several cancer cell lines; assay type: cell-based, human; conditions: Homo sapiens, approximate level over the three cancer cell lines; mixtures equimolar 1:1; read-out: IC50 in SKBR-3, SKOV-3 and PC-3
Procedure: Human cancer cells SKBR-3 (human breast cancer cell line) and SKOV-3 (ovarian cancer cell line) were cultured in McCoy’s Modified Medium. Human cancer cells PC-3 (human prostate cancer cell line) were cultured in F-12K medium, as well as A549 cell line (lung cancer cell line). U-87MG cells (glioblastoma cell line) were cultured in Eagle’s Minimal Essential Medium. Human Dermal Fibroblasts cell line (HDF) was cultured in Fibroblast Basal Medium.
as §10, §11
acetic acid and then air dried overnight. The protein-bound dye was dissolved in 100 μL of 10 mM unbuffered Tris base (pH 10.5) for optical density determination at 490 nm. All cytotoxicity experiments were performed three times. Cell survival was measured as the percentage absorbance compared to the control (nontreated cells). Cytarabine (ara-C) and GDM were used as the internal standards. Additionally biological assays were performed in Human Dermal Fibroblasts cell line (HDF) in aim to evaluate cytotoxicity of GDM and its 1-13 analogs in healthy cells. SI indexes were calculated from equation SI = IC50 normal cell line HDF/IC50 respective cancerous cell line (Table 2). A beneficial SI > 1.0 indicates a compound with efficacy against tumor cell greater than the toxicity against normal cells.
as §3, §4, §5

Row | Structure (SMILES) | IC50 [1] | selectivity index SI (MDA-MB-231) [1] | IC50 [2] | selectivity index SI (MCF-7) [2] | IC50 [3] | IC50 [4] | selectivity index SI (HeLa) [4] | IC50 [5] | selectivity index SI (HepG2) [5] | IC50 [6] | selectivity index SIHDF (PC-3) [6] | CC50 [7] | IC50 [8] | selectivity index SIHDF (SKBR-3) [8] | IC50 [9] | selectivity index SIHDF (SKOV-3) [9] | also measured
1 | CO[C@H]1/C=C\C=C(/C)C(=O)NC2=CC(=O)C(NC3CCN(Cc4ccccc4)CC3)=C(C[C@@H](C)C[C@H](OC)[C@H](O)[C@@H](C)/C=C(\C)[C@@H]1OC(N)=O)C2=O [Compound 5] | 2.28 ± 0.54 µM | 6.71 | 1.84 ± 0.57 µM | 8.32 | 15.3 ± 0.12 µM | 1.56 ± 0.14 µM | 9.81 | 1.63 ± 0.49 µM | 9.39 |  |  |  |  |  |  |  | 
2 | CO[C@H]1/C=C\C=C(/C)C(=O)NC2=CC(=O)C(NC3CCN(C(C)=O)CC3)=C(C[C@@H](C)C[C@H](OC)[C@H](O)[C@@H](C)/C=C(\C)[C@@H]1OC(N)=O)C2=O [Compound 6] | 3.16 ± 0.89 µM | > 3.16 | 0.61 ± 0.14 µM | > 16.39 | > 10 µM | 4.75 ± 0.35 µM | > 2.11 | 3.38 ± 0.13 µM | > 2.96 |  |  |  |  |  |  |  | 
3 | CO[C@H]1/C=C\C=C(/C)C(=O)NC2=CC(=O)C(NC3CCN(S(C)(=O)=O)CC3)=C(C[C@@H](C)C[C@H](OC)[C@H](O)[C@@H](C)/C=C(\C)[C@@H]1OC(N)=O)C2=O [Compound 7] | 2.36 ± 0.35 µM | 5.34 | 0.96 ± 0.51 µM | 13.13 | 12.6 ± 0.21 µM | 1.61 ± 0.61 µM | 7.83 | 1.68 ± 0.32 µM | 7.50 |  |  |  |  |  |  |  | 
4 | CO[C@H]1/C=C\C=C(/C)C(=O)NC2=CC(=O)C(NC3C[N+]4(Cc5ccc([N+](=O)[O-])o5)CCC3CC4)=C(C[C@@H](C)C[C@H](OC)[C@H](O)[C@@H](C)/C=C(\C)[C@@H]1OC(N)=O)C2=O (some centres unmarked) [Compound 11] | 3.93 ± 1.6 µM | > 2.54 | 4.67 ± 2 µM | > 2.14 | > 10 µM | 8.91 ± 3.19 µM | > 1.12 | 8.86 ± 0.17 µM | > 1.13 | 6.22 ± 0.13 µM | 1.27 | 7.91 ± 0.91 µM | 6.49 ± 0.07 µM | 1.22 | 6.04 ± 0.38 µM | 1.31 | solubility [10]: 2300 µg/mL; IC50 ([11]; Homo sapiens, U-87 MG, ± SD, SRB, 72 h): 6.06 ± 0.58 µM; selectivity index SIHDF (U-87) ([11]; IC50 normal cell line HDF/IC50 U-87): 1.31; IC50 ([12]; Homo sapiens, A549, ± SD, SRB, 72 h): 6.83 ± 0.32 µM; selectivity index SIHDF (A-549) ([12]; IC50 normal cell line HDF/IC50 A-549): 1.16
5 | COc1cccc2c1C(=O)c1c(O)c3c(c(O)c1C2=O)C[C@@](O)(C(=O)CO)C[C@@H]3O[C@H]1C[C@H](N)[C@H](O)[C@H](C)O1 [DOX, doxorubicin, reference compound] |  |  |  |  |  |  |  |  |  | 0.68 ± 0.01 µM | 2.24 | 1.52 ± 0.03 µM | 0.72 ± 0.04 µM | 2.11 | 0.74 ± 0.06 µM | 2.05 | IC50 [13]: ~0.7 µM
